Results from US20240287046A1, “COMPOUNDS AND RADIOLIGANDS FOR TARGETING NEUROTENSIN RECEPTOR AND USES THEREOF” (Full-Life Technologies HK Limited, priority 2022, published 2024).
Blank lines part the entries; values can stand above or below the compound they belong to.

Experiments:
[1] = system: ASPC-1 tumor-bearing mice; experiment: PET/CT imaging of ^68Ga-labeled complexes; format: in vivo; settings: over 180 minutes
Description: ASPC-1 tumor-bearing mice were IV-injected with 150 μCi of ^68Ga-labeled compounds, anesthetized under 2% isoflurane/oxygen gas and placed on the scanner. PET images were acquired in one bed position for 10 min using an animal PET/SPECT/CT (Inliview-3000B). Whole-body PET images were acquired at 30, 60, 120 and 180 minutes after injection of the radiotracers.

human NTSR-1 [2] = molecular target: T1, human NTSR-1 (Homo sapiens (Human), UniProt P30989); experiment: FLIPR assay, inhibition of Neurotensin-induced intracellular-calcium mobilization; format: cell-based; settings: HEK293 cells stably expressing human NTSR-1, mean; read-out: IC50 (nM) in FLIPR Assays
Description: Binding affinities of the representative compounds were also evaluated by FLIPR assay. Neurotensin receptor 1 belongs to the G-protein coupled receptors (GPCR) family. Activation of NTSR-1 by its ligand Neurotensin can induce intracellular-calcium mobilization. In FLIPR assay, the test compound and Neurotensin were incubated together with cells expressing NTSR-1 to measure inhibition of the intracellular-calcium mobilization by the test compound so that to evaluate its binding affinity.
Briefly, HEK293 cells stably expressing human NTSR-1 were plated in 384-well plates. 20 ul cell suspension at a concentration of 10×10^5 per ml was seeded in each well and incubated at 37° C. 5% CO2 overnight. Then the cells in each well were mixed with 20 ul probenecid assay buffer, 20 ul 8 uM Fluo-4 Direct™ Loading Buffer, 6×EC80 of Neurotensin and 10 μl of the diluted test compound, and incubated at 37° C. 5% CO2 for 50 min followed by incubation at room temperature for 10 min. The plate was then subject to FLIPR analysis.

[3] = system: ASPC-1 tumor-bearing mice; experiment: Biodistribution of radionuclide labeled complexes in ASPC-1 tumor-bearing mice; format: in vivo, BALB/c nude mice
Method in brief: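 BALB/c nude mice bore subcutaneous flank xenografts from ~4×10^6 NTSR-1-expressing cells, grown 2-4 weeks to ~0.05-0.50 g. Labeled compound, ~30-50 μCi (30-250 μCi/nmol specific activity) in 0.9% NaCl, was given by tail vein; organs were excised, weighed and γ-counted at various times for % ID and % ID/g.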

[4] = system: pancreatic cancer patients; settings: cited from earlier work
human NTSR-1 [5] = molecular target: T1, human NTSR-1; experiment: radioligand competitive binding assay using ^177Lu labeled C-1 as reference radioligand
Description: The binding affinities of test compounds were determined by a radioligand competitive binding assay using ^177Lu labeled C-1 as the reference radioligand.
Briefly, 100 μL HT-29 cells expressing human NTSR-1 at a density of 1˜2×10^6 cells/mL were mixed with binding buffer (RPMI-1640 medium supplemented with 0.25% bovine serum albumin) in each well of the 96-well filter plate (Millipore). Then the cells in each well were incubated with ^177Lu—C-1 (0.55 μCi/well) and the test compound under 37° C. for 1 hr (n=3). After incubation, unbound ^177Lu—C-1 and the test compound in each well was removed by filtration using a Multiscreen vacuum manifold (Millipore) and the cells were further rinsed with the binding buffer for 5 times. The cells from each well were then collected and radioactivity of the cells in each well was individually measured by y counter (2480 WIZARD2, PerkinElmer). The best-fit IC50 value of test compounds (inhibitory concentration when 50% of the bound ^177Lu—C-1 on cells were displaced) were calculated by fitting the data with nonlinear regression using GraphPad Prism 8.0.1.

T1 sequence (P30989 whole entry): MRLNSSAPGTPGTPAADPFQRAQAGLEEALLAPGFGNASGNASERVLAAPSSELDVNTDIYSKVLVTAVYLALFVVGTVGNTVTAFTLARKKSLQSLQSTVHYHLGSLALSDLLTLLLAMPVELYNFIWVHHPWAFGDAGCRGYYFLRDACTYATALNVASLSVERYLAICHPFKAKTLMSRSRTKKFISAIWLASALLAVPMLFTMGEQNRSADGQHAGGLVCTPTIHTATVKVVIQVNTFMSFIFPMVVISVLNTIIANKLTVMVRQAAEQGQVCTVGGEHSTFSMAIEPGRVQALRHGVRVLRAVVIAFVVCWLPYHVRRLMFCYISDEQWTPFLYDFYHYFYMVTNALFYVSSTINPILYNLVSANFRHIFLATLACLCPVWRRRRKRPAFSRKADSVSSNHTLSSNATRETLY

- tumor uptake/retention compared to ^68Ga—C-5 (PET/CT) ([1]; ASPC-1 tumor-bearing mice): stronger tumor uptake/retention
- tumor to normal contrast compared to ^68Ga—C-5 (PET/CT) ([1]; such as tumor to liver): better tumor to normal contrast
Compound: COc1cccc(OC)c1-c1cc(C(=O)NC2(C(=O)O)C3CC4CC(C3)CC2C4)nn1-c1ccc(N(CCCN(C)C)C(=O)COCCOCCNC(=O)CN2CCN(CC(=O)[O-])CCN(CC(=O)[O-])CCN(CC(=O)[O-])CC2)cc1C(C)C.[68Ga+3] (centres unmarked) [^68Ga—I-6]

- IC50 (human NTSR-1 [2]): 45.4 nM
- AUC (0-72 h) ratio Tumor/Blood ([3]; ^177Lu-labeled complex): 9.0
- AUC (0-72 h) ratio Tumor/Kidney ([3]; ^177Lu-labeled complex): 8.80
- AUC (0-72 h) ratio Tumor/Liver ([3]; ^177Lu-labeled complex): 7.61
- AUC (0-72 h) ratio Tumor/Lung ([3]; ^177Lu-labeled complex): 14.2
- Relative Binding Affinity (human NTSR-1 [5]; Mean IC50 of C-1/Mean IC50 of the test compound): 7.2
- potency relative to SR142948 (human NTSR-1 [5]; competitive radioligand binding assay using HT-29 cells): about 40%
Compound: COc1cccc(OC)c1-c1cc(C(=O)NC2(C(=O)O)C3CC4CC(C3)CC2C4)nn1-c1ccc(C(=O)N(C)CCCN(C)CCCN(C)C(=O)CN2CCN(CC(=O)O)CCN(CC(=O)O)CCN(CC(=O)O)CC2)cc1C(C)C (centres unmarked) [Compound C-2, 2,2′,2″-(10-(2-((3-((3-(4-(3-((2-carboxyadamantan-2-yl)carbamoyl)-5-(2,6-dimethoxyphenyl)-1H-pyrazol-1-yl)-3-isopropyl-N-methylbenzamido)propyl)(methyl)amino)propyl)(methyl)amino)-2-oxoethyl)-1,4,7,10-tetraazacyclododecane-1,4,7-triyl)triacetic acid, reference compound]
- tumor uptake of the radioligand ([4]; ^177Lu-chelated form, small number of pancreatic cancer patients): clearly observed

- % ID/g (1 h) Blood ([3]; Blood, 1 h): 13.87 ± 0.17 % ID/g
- % ID/g (4 h) Blood ([3]; Blood, 4 h): 4.46 ± 0.64 % ID/g
- % ID/g (24 h) Blood ([3]; Blood, 24 h): 0.31 ± 0.1 % ID/g
- % ID/g (72 h) Blood ([3]; Blood, 72 h): 0.09 ± 0.01 % ID/g
- % ID/g (1 h) Femur ([3]; Femur, 1 h): 1.34 ± 0.23 % ID/g
- % ID/g (4 h) Femur ([3]; Femur, 4 h): 0.89 ± 0.11 % ID/g
- % ID/g (24 h) Femur ([3]; Femur, 24 h): 0.22 ± 0.13 % ID/g
- % ID/g (72 h) Femur ([3]; Femur, 72 h): 0.12 ± 0.03 % ID/g
- % ID/g (1 h) Heart ([3]; Heart, 1 h): 4.83 ± 1.1 % ID/g
- % ID/g (4 h) Heart ([3]; Heart, 4 h): 1.72 ± 0.18 % ID/g
- % ID/g (24 h) Heart ([3]; Heart, 24 h): 0.37 ± 0.07 % ID/g
- % ID/g (72 h) Heart ([3]; Heart, 72 h): 0.16 ± 0.04 % ID/g
- % ID/g (1 h) Intestine ([3]; Intestine, 1 h): 1.98 ± 0.63 % ID/g
- % ID/g (4 h) Intestine ([3]; Intestine, 4 h): 1.62 ± 0.41 % ID/g
- % ID/g (24 h) Intestine ([3]; Intestine, 24 h): 0.44 ± 0.11 % ID/g
- % ID/g (72 h) Intestine ([3]; Intestine, 72 h): 0.15 ± 0.06 % ID/g
- % ID/g (1 h) Kidney ([3]; Kidney, 1 h): 3.34 ± 1.53 % ID/g
- % ID/g (4 h) Kidney ([3]; Kidney, 4 h): 2.6 ± 0.93 % ID/g
- % ID/g (24 h) Kidney ([3]; Kidney, 24 h): 1.36 ± 0.42 % ID/g
- % ID/g (72 h) Kidney ([3]; Kidney, 72 h): 0.46 ± 0.08 % ID/g
- % ID/g (1 h) Liver ([3]; Liver, 1 h): 2.01 ± 1.1 % ID/g
- % ID/g (4 h) Liver ([3]; Liver, 4 h): 2.51 ± 0.12 % ID/g
- % ID/g (24 h) Liver ([3]; Liver, 24 h): 1.53 ± 0.93 % ID/g
- % ID/g (72 h) Liver ([3]; Liver, 72 h): 0.99 ± 0.37 % ID/g
- % ID/g (1 h) Lung ([3]; Lung, 1 h): 3.67 ± 2.25 % ID/g
- % ID/g (4 h) Lung ([3]; Lung, 4 h): 1.92 ± 0.99 % ID/g
- % ID/g (24 h) Lung ([3]; Lung, 24 h): 0.69 ± 0.14 % ID/g
- % ID/g (72 h) Lung ([3]; Lung, 72 h): 0.23 ± 0.06 % ID/g
- % ID/g (1 h) Muscle ([3]; Muscle, 1 h): 0.93 ± 0.21 % ID/g
- % ID/g (4 h) Muscle ([3]; Muscle, 4 h): 0.31 ± 0.1 % ID/g
- % ID/g (24 h) Muscle ([3]; Muscle, 24 h): 0.1 ± 0.05 % ID/g
- % ID/g (72 h) Muscle ([3]; Muscle, 72 h): 0.06 ± 0.03 % ID/g
- % ID/g (1 h) Pancreas ([3]; Pancreas, 1 h): 0.8 ± 0.47 % ID/g
- % ID/g (4 h) Pancreas ([3]; Pancreas, 4 h): 0.27 ± 0.06 % ID/g
- % ID/g (24 h) Pancreas ([3]; Pancreas, 24 h): 0.1 ± 0.02 % ID/g
- % ID/g (72 h) Pancreas ([3]; Pancreas, 72 h): 0.07 ± 0.03 % ID/g
- % ID/g (1 h) Spleen ([3]; Spleen, 1 h): 1.25 ± 0.78 % ID/g
- % ID/g (4 h) Spleen ([3]; Spleen, 4 h): 0.49 ± 0.04 % ID/g
- % ID/g (24 h) Spleen ([3]; Spleen, 24 h): 0.35 ± 0.3 % ID/g
- % ID/g (72 h) Spleen ([3]; Spleen, 72 h): 0.34 ± 0.1 % ID/g
- % ID/g (1 h) Stomach ([3]; Stomach, 1 h): 1.35 ± 0.42 % ID/g
- % ID/g (4 h) Stomach ([3]; Stomach, 4 h): 0.6 ± 0.23 % ID/g
- % ID/g (24 h) Stomach ([3]; Stomach, 24 h): 0.15 ± 0.04 % ID/g
- % ID/g (72 h) Stomach ([3]; Stomach, 72 h): 0.05 ± 0 % ID/g
- % ID/g (1 h) Tumor ([3]; Tumor, 1 h): 10.34 ± 5.66 % ID/g
- % ID/g (4 h) Tumor ([3]; Tumor, 4 h): 16.13 ± 4.47 % ID/g
- % ID/g (24 h) Tumor ([3]; Tumor, 24 h): 12.6 ± 3.52 % ID/g
- % ID/g (72 h) Tumor ([3]; Tumor, 72 h): 8.03 ± 5.76 % ID/g
Compound: COc1cccc(OC)c1-c1cc(C(=O)NC2(C(=O)O)C3CC4CC(C3)CC2C4)nn1-c1ccc(C(=O)N(C)CCCN(C)CCCN(C)C(=O)CN2CCN(CC(=O)[O-])CCN(CC(=O)[O-])CCN(CC(=O)[O-])CC2)cc1C(C)C.[177Lu+3] (centres unmarked) [^177Lu-C-2, reference compound]
- dose limiting organ ([4]; human study): kidney
